Patent publication US6368529B1, “Lignocellulosic composite” (U.S. Borax Inc., priority 2000, dated 2002)

Assays:
[1] = Bulk solids flow testing, J. R. Johanson Indicizer System; type: physicochemical; conditions: for Hopper Index Stainless Steel / Chute Index Stainless Steel: 304-2B Stainless Steel; for Hopper Index Stainless Steel / Hopper Index Plastic / Hopper Index Carbon Steel: maximum angle from the vertical, larger is better; for Chute Index Stainless Steel / Chute Index Plastic / Chute Index Carbon Steel: minimum angle from horizontal, smaller is better; for Hopper Index Plastic / Chute Index Plastic: Tivar UHMWPE plastic; for Hopper Index Carbon Steel / Chute Index Carbon Steel: aged carbon steel; for Arching Index / Ratholing Index: multiple of the discharge opening, less than 1 necessary for free flow, average of 3-6 tests
Source text: Bulk solids flow testing was done using the J. R. Johanson Indicizer System, including a Hang-up Indicizer and Hopper Indicizer, manufactured by J R Johanson, Inc. 712 Fiero Lane #37, San Luis Obispo, Calif. 93401. The test procedures are described in detail in their company literature (BULK SOLIDS INDICES TESTING, Hang-up Indicizer™ Instruction Manual ©JR Johanson, Inc. 1991 and BULK SOLIDS INDICES TESTING, Hopper Indicizer™ Instruction Manual ©JR Johanson, Inc. 1991). The results are presented in the following Table 3 as the Arching Index, Ratholing Index, Hopper Index and Chute Index, which are the average of several tests (3-6). The meaning and usefulness of these flow indices in evaluating the flow properties of bulk solids are also described in literature from JR Johanson, Inc., including Binside Scoop™, Vol. 7, No. 2, Fall 1994, Binside Scoop™, Vol. 8, No. 3, Winter 1995, and “Bulk solids Flow Indices—A Simplified Evaluation system”, by Jerry R. Johanson, ©JR Johanson, 1991.
Arching Index—A tendency of a cohesive material is to plug up the opening of a bin by forming an “arch” over the discharge opening. The arching index is given as a multiple of the discharge opening, so less than 1 is necessary for free flow. Numbers greater than 1 reflect a need to enlarge the opening.
Ratholing Index—A tendency of a cohesive material is to hang up on the sides of a bin while an open hole forms in the center and flow ceases. Rathole indices are also given as a multiple of the discharge opening and a number of less than 1 is necessary for free flow. Numbers greater than 1 mean the bins should be redesigned.
Hopper Index—The maximum angle, measured in degrees from the vertical, that is required for the conical portion of a hopper in order to produce reliable mass flow. A larger number is better.
Chute Index—The minimum angle, measured in degrees from horizontal, required for flow down a chute and to prevent material buildup at impact areas. A smaller number is better. Chute indices may often be close to the angle of repose.
Both hopper and chute indices measurements involve friction over a specified surface and measurements are made using substrates of the material of construction. The substrates used for these tests are 304-2B Stainless Steel, aged carbon steel and Tivar UHMWPE (ultra high molecular weight polyethylene) plastic.

[2] = test system: Trametes versicolor (MAD 697); experiment: Soil block decay test (AWPA E10-87), white rot; type: cell-based
Source text: (§1) Wood flakeboard was manufactured by conventional wood processing techniques, incorporating various borates at a range of concentrations, from 0.5 to 2.0% boric acid equivalent (BAE). Boric acid (H3BO3) equivalent is a commonly used convention for comparing various borates on an equivalent contained-boron basis. For each borate/loading combination, fifteen pounds of aspen (Populus tremuloides) furnish having an average particle size of about 2.5×0.75×0.025 inches, was blended with 0.75 pounds (5%) Rubinate 1840 (product of ICI), a polymeric methylene diphenyl diisocyanate adhesive, 0.11 pounds (0.75%) of Cascowax EW 403HS (product of Borden) and various concentrations of nine test borates. For each borate/loading combination, three 18″×18″ composite boards of 0.5 inch thickness were formed by pressing for 210 seconds at (180 seconds pressure, 30 seconds pressure release) at 204.5° C. (the pressure was kept in excess of 6000 psi during the pressure cycle). Each board was trimmed to 15″×15″ and cut to produce internal bond and analytical/soil block specimens for evaluation. Replicates were cut from the inner portion of the boards. Four internal bond, two leaching panels and twenty analytical/soil block specimens were cut from each board.
(§2) The panels to be leached (4.5″×4.5″) were edge sealed with an epoxy sealant and leached for two weeks. Leaching began with pressure treatment of the specimens with water for 30 minutes under vacuum and one hour under pressure. The specimens were removed from the pressure treatment chamber and the residual water was changed after two hours, then daily for the remainder of the leaching period. Afterward, they were trimmed to remove the sealed edges and cut into analytical/soil block test samples. Unleached and leached analytical/soil block samples for each board type were separately randomized. Fifteen were analyzed for borate content and ten were retained for the soil block decay test.
(§3) The soil block test was conducted in accordance with AWPA E10-87, with the exception that soil block dimensions were 1.0″×1.0″×0.5″. The fungi used were Gloeophyllum trabeum (ATCC 11539) for brown rot test and Trametes versicolor (MAD 697) for white rot test. An untreated composite control was run both unleached and leached. Solid southern yellow pine and birch were also run as unleashed controls against G. trabeum and T. versicolor, respectively as a test of fungal vigor.

[3] = Borate content of composite after two weeks water leaching; type: physicochemical; conditions: leached two weeks
Procedure: as §2

[4] = test system: Gloeophyllum trabeum (ATCC 11539); experiment: Soil block decay test (AWPA E10-87), brown rot; type: cell-based
Source text: as §1, §2, §3

[5] = leached two weeks, target loading 0.5% BAE (0.09% B)
[6] = leached two weeks, target loading 1.0% BAE (0.17% B)
[7] = leached two weeks, target loading 2.0% BAE (0.35% B)
[8] = unleached aspen flakeboard, target loading 0.5% BAE (0.09% B)
[9] = unleached aspen flakeboard, target loading 1.0% BAE (0.17% B)
[10] = unleached aspen flakeboard, target loading 2.0% BAE (0.35% B)
[11] = target loading 0.5% BAE (0.09% B)
[12] = target loading 1.0% BAE (0.17% B)
[13] = target loading 2.0% BAE (0.35% B)

## Nobleite
[1]
  Hopper Index Stainless Steel: 16 degrees
  Chute Index Stainless Steel: 45 degrees
  Hopper Index Plastic: 17 degrees
  Chute Index Plastic: 41 degrees
  Hopper Index Carbon Steel: 14 degrees
  Chute Index Carbon Steel: 47 degrees
  Arching Index: 0.2
  Ratholing Index: 0.5
[1]; compared with zinc borate, Colemanite F and Colemanite, Glass Grade
  Flow properties, summary: superior flow properties
[2]; [5]
  Mean % Wt. Loss T. versicolor: 27.6%
[2]; [6]
  Mean % Wt. Loss T. versicolor: 11.6%
[2]; [7]
  Mean % Wt. Loss T. versicolor: 10.1%
[2]; [8]
  Mean % Wt. Loss T. versicolor: 5.3%
[2]; [9]
  Mean % Wt. Loss T. versicolor: 3.6%
[2]; [10]
  Mean % Wt. Loss T. versicolor: 2.6%
[3]; [11]
  Assay % B: 0.03 % B
[3]; [12]
  Assay % B: 0.06 % B
[3]; [13]
  Assay % B: 0.09 % B
[4]; [5]
  Mean % Wt. Loss G. trabeum: 5.4%
[4]; [6]
  Mean % Wt. Loss G. trabeum: 1.4%
[4]; [7]
  Mean % Wt. Loss G. trabeum: 1.5%
[4]; [8]
  Mean % Wt. Loss G. trabeum: 1.1%
[4]; [9]
  Mean % Wt. Loss G. trabeum: 1.0%
[4]; [10]
  Mean % Wt. Loss G. trabeum: 1.4%

## Colemanite [Colemanite (2)]
[1]; listed as Colemanite F
  Hopper Index Stainless Steel: 1.3 degrees
  Chute Index Stainless Steel: 90 degrees
  Hopper Index Plastic: 4.2 degrees
  Hopper Index Carbon Steel: 2.7 degrees
  Chute Index Carbon Steel: 90 degrees
  Arching Index: 0.4
  Ratholing Index: 3.9
[1]
  Chute Index Plastic: 90 degrees
[2]; after leaching
  Comparison with zinc borate against T. versicolor: roughly comparable to zinc borate
[2]; [5]
  Mean % Wt. Loss T. versicolor: 19.9%
[2]; [6]
  Mean % Wt. Loss T. versicolor: 5.1%
[2]; [7]
  Mean % Wt. Loss T. versicolor: 2.2%
[2]; [8]
  Mean % Wt. Loss T. versicolor: 5.1%
[2]; [9]
  Mean % Wt. Loss T. versicolor: 2.3%
[2]; [10]
  Mean % Wt. Loss T. versicolor: 2.2%
[3]; [11]
  Assay % B: 0.04 % B
[3]; [12]
  Assay % B: 0.08 % B
[3]; [13]
  Assay % B: 0.18 % B
[4]; after leaching
  Comparison with zinc borate against G. trabeum: roughly comparable to zinc borate
[4]; [5]
  Mean % Wt. Loss G. trabeum: 3.4%
[4]; [6]
  Mean % Wt. Loss G. trabeum: 1.6%
[4]; [7]
  Mean % Wt. Loss G. trabeum: 1.3%
[4]; [8]
  Mean % Wt. Loss G. trabeum: 0.8%
[4]; [9]
  Mean % Wt. Loss G. trabeum: 0.6%
[4]; [10]
  Mean % Wt. Loss G. trabeum: 1.1%

## Zinc Borate [reference compound]
[1]
  Hopper Index Stainless Steel: 13 degrees
  Chute Index Stainless Steel: 38 degrees
  Hopper Index Plastic: 13 degrees
  Chute Index Plastic: 58 degrees
  Hopper Index Carbon Steel: 12 degrees
  Chute Index Carbon Steel: 44 degrees
  Arching Index: 0.5
  Ratholing Index: 2.9
[2]; [5]
  Mean % Wt. Loss T. versicolor: 22.9%
[2]; [6]
  Mean % Wt. Loss T. versicolor: 7.0%
[2]; [7]
  Mean % Wt. Loss T. versicolor: 2.0%
[2]; [8]
  Mean % Wt. Loss T. versicolor: 8.3%
[2]; [9]
  Mean % Wt. Loss T. versicolor: 2.9%
[2]; [10]
  Mean % Wt. Loss T. versicolor: 1.6%
[3]; [11]
  Assay % B: 0.05 % B
[3]; [12]
  Assay % B: 0.10 % B
[3]; [13]
  Assay % B: 0.23 % B
[4]; [5]
  Mean % Wt. Loss G. trabeum: 2.3%
[4]; [6]
  Mean % Wt. Loss G. trabeum: 0.9%
[4]; [7]
  Mean % Wt. Loss G. trabeum: 0.8%
[4]; [8]
  Mean % Wt. Loss G. trabeum: 0.9%
[4]; [9]
  Mean % Wt. Loss G. trabeum: 0.8%
[4]; [10]
  Mean % Wt. Loss G. trabeum: 1.0%
